According to patent US20100190856A1, “Novel Polyhydroxylated Compounds as Fatty Acid Synthase (FASN) Inhibitors” (UNIVERSIDAD COMPLUTENSE DE MADRID, priority 2007, published 2010):

Key:
AKT = experiment: Immunoblot analysis of AKT and phospho-AKT in SK-Br3 cells; assay type: cell-based, human; conditions: for time after treatment at which a marked decrease of p-AKT was observed / expression levels of p-AKT proteins: SK-Br3, 30 μM; for expression levels of p-AKT proteins: 6 hours after treatment; for active form of Akt: within 2 h after treatment
Procedure: (§1) Following the treatment of SK-Br3 cells with the studied compound at the desired concentrations and time intervals, cells were harvested by treatment with trypsin-EDTA solution, washed twice with PBS and stored at −80° C. The cells were lysed in lysis buffer (1 mM EDTA, 150 mM NaCl, 100 μg/mL PMSF and 50 mM Tris-HCl, pH 7.5) and kept at 4° C. while they were routinely mixed every 2 min on the vortex during 30 min. A sample was taken for measurement of protein content by a BioRad assay (Bio-Rad Laboratories). Equal amounts of protein were heated in sodium dodecyl sulphate (SDS) sample buffer (Laemmli) for 5 min at 95° C., separated on a 3-8% SDS-polyacrylamide gel (FASN, p185^HER2/neu, phospho-p185^HER2/neu) or 4-12% SDS-polyacrylamide gel (AKT, phospho-AKT, ERK1/2, phospho-ERK1/2 and PARP) and transferred onto nitrocellulose membranes. The membranes were incubated for 1 h at room temperature in blocking buffer (2.5% powdered-skim milk in TBS-T [10 mM Tris-HCl pH 8.0, 150 mM NaCl and 0.05% Tween-20]) to prevent non-specific antibody binding. The primary antibody used was a monoclonal antibody. Antibody dilution was prepared in blocking solution and blots were incubated with monoclonal antibody overnight at 4° C. […] Blots were re-probed with an antibody for β-actin to control for protein loading and transfer.

ERK1/2 = experiment: Immunoblot analysis of ERK1/2 and phospho-ERK1/2 in SK-Br3 cells; assay type: cell-based, human; conditions: for activation of p-ERK1/2 proteins: SK-Br3, 30 μM, 6 h after treatment; for active form of ERK1/2: within 2 h after treatment
Procedure: as §1

O=C(Oc1cc(OC(=O)c2cc(O)c(O)c(O)c2)c2ccccc2c1)c1cc(O)c(O)c(O)c1 [f, 1,3-bis[(3,4,5-trihydroxybenzoyl)oxy]naphthalene]
time after treatment at which a marked decrease of p-AKT was observed (AKT): 24 h | expression levels of p-AKT proteins (AKT): low decrease | active form of Akt (AKT): marked decrease | activation of p-ERK1/2 proteins (ERK1/2): marked decrease | active form of ERK1/2 (ERK1/2): marked decrease

O=C(Oc1ccc(OC(=O)c2cc(O)c(O)c(O)c2)c2ccccc12)c1cc(O)c(O)c(O)c1 [i, 1,4-bis[(3,4,5-trihydroxybenzoyl)oxy]naphthalene]
time after treatment at which a marked decrease of p-AKT was observed (AKT): 12 h | expression levels of p-AKT proteins (AKT): low decrease | active form of Akt (AKT): marked decrease | activation of p-ERK1/2 proteins (ERK1/2): marked decrease | active form of ERK1/2 (ERK1/2): marked decrease
